Measured values reported in patent US10561681B2, “Antimetastatic 2H-selenopheno[3,2-h]chromenes, synthesis thereof, and methods of using same agents” (Latvian Institute of Organic Synthesis, priority 2016, dated 2020).
Where “and” joins values, the source holds several entries; their conditions need not be identical. Equal values may be shown once. Marks after values point to notes of the source that are not given here.

Experiments:
[1] = system: A549 (human lung carcinoma); experiment: In vitro cytotoxicity, MTT test; assay type: cell-based; conditions: Homo sapiens, A549, 72 h, MTT, 72 h; read-out: Cytotoxicity IC50, A549
Method: (§1) Anticancer activity of selenopheno[h]chromenes was tested in vitro using cytotoxicity assay. […] About 2-9·10^4 cells/mL (depending on line nature) were placed in 96-well plates immediately after compounds were added to the wells. Untreated cells were used as a control. The plates were incubated for 72 h, 37° C., 5% CO2. The number of surviving cells was determined using 3-(4,5-dimethylthiazol-2-yl)-2,5-diphenyltetrazolinium bromide (MTT). MTT-test: after incubating culture medium was removed and 200 μL fresh medium with 10 mM HEPES was added in each well of the plate, than 20 μL MTT (2 mg/mL in HBSS) was added. After incubation (3 hr, 37° C., 5% CO2), the medium with MTT was removed and 200 μL DMSO were added at once to each sample. The samples were tested at 540 nm on Anthos HT II photometer.

CCL-8 (mouse sarcoma) = experiment: In vitro cytotoxicity, MTT test; assay type: cell-based; conditions: MTT, 72 h, read-out: Cytotoxicity IC50, CCL-8
Method: as §1

[2] = system: HT-1080 (human fibrosarcoma); experiment: In vitro cytotoxicity, MTT test; assay type: cell-based; conditions: HT-1080, MTT, 72 h, read-out: Cytotoxicity IC50, HT-1080
Method: as §1

[3] = system: HepG2 (human hepatocellular carcinoma); experiment: In vitro cytotoxicity, MTT test; assay type: cell-based; conditions: HepG2, MTT, 72 h, read-out: Cytotoxicity IC50, HepG2
Method: as §1

[4] = system: MCF-7 (human breast adenocarcinoma, estrogen-positive); experiment: In vitro cytotoxicity, MTT test; assay type: cell-based; conditions: MCF7, MTT, 72 h, read-out: Cytotoxicity IC50, MCF-7
Method: as §1

[5] = system: MDA-MB-435s (human melanoma); experiment: In vitro cytotoxicity, MTT test; assay type: cell-based; conditions: MTT, 72 h, read-out: Cytotoxicity IC50, MDA-MB-435s
Method: as §1

[6] = system: MES-SA (human uterus sarcoma); experiment: In vitro cytotoxicity, MTT test; assay type: cell-based; conditions: MTT, 72 h, read-out: Cytotoxicity IC50, MES-SA
Method: as §1

MG-22A (mouse hepatoma) = experiment: In vitro cytotoxicity, MTT test; assay type: cell-based; conditions: MTT, 72 h, read-out: Cytotoxicity IC50, MG-22A
Method: as §1

[7] = system: SH-SY5Y (human neuroblastoma); experiment: In vitro cytotoxicity, MTT test; assay type: cell-based; conditions: Homo sapiens, SH-SY5Y, 72 h, MTT, read-out: Cytotoxicity IC50, SHSY5Y
Method: as §1

[8] = Basal cytotoxicity test, Neutral Red Uptake (NRU) assay; assay type: cell-based
Method: (§2) In parallel, the borderline concentration relevant to the highest tolerated dose has been determined for each compound using the NIH 3T3 (mouse embryo fibroblasts) cell line and the basal cytotoxicity obtained has then been used to predict the starting doses for in vivo acute oral LD50 values in rodents.
(§3) the Neutral Red Uptake (NRU) assay was performed according to the standard protocol of Stokes modified by the NICEATM-ECVAM validation study. The NRU cytotoxicity assay procedure is based on the ability of viable cells to incorporate and bind Neutral Red, a supravitally dye. Balb/c 3T3 (Mouse Swiss Albino embryo fibroblast) cells (9000 cells/well) were placed into 96-well plates for 24 h in Dulbecco's modified Eagle's (DMEM) medium containing 5% fetal bovine serum. The cells were then exposed to the test compounds over a range of […] concentrations (1000, 316, 100, 31, 10, 3, 1 μg/ml) for 24 h. Untreated cells were used as a control. After 24 h, the medium was removed from all plates. Then, 250 μL of Neutral Red solution were added (0.05 mg/mL NR in DMEM 24 h pre-incubated at 37° C. and then filtered before use through 0.22-μm syringe filter). Plates were incubated for 3 h and then cells were washed three times with PBS. The dye within viable cells was released by extraction with a mixture of acetic acid, ethanol and water (1:50:49). Absorbance of Neutral Red was measured using a spectrophotometer multiplate reader (TECAN, Infinite M1000) at 540 nm. The percentage of living cells was calculated using the formula: OD (treated cells)*100/OD (control cells). The IC50 values were calculated using the programme Graph Pad Prism® 3.0.
(§4) Data from the in vitro tests were used for estimating the starting dose for acute oral systemic toxicity tests in rodents. […] The value is recalculated to mg/kg and compounds are evaluated in accordance with four toxicity categories: category 1: LD50≤5 mg/kg (highly toxic); category 2: 5<LD50≤50 mg/kg (moderately toxic); category 3: 50<LD50≤300 mg/kg (slightly toxic); category 4: 300<LD50≤2 000 mg/kg (practically non-toxic).

[9] = system: 3T3 (mouse embryo fibroblasts); experiment: as above; assay type: cell-based
Method: as §2, §3, §4

[10] = system: mouse sarcoma CCRF-S180 II (CCL-8); experiment: Mouse non-metastatic cancer model, sarcoma CCL-8 s.c. in ICR mice; assay type: in vivo; conditions: s.c. Day 1, 2, 3, 4, 7, 8, 9, 10, 11; dose 5 mg/kg, total dose 45 mg/kg
Method: Six-week-old female ICR and BALB/c mice were purchased from the University of Tartu Laboratory Animal Centre (Estonia). The mice were housed five to a cage, and under standard conditions (21-23° C., 12 h light: dark cycle), fed ad libitum (R3 diet, Lactamin AB, Kimstad, Sweden) and observed daily. The experimental procedures involving experimental animals were carried out in accordance with the guidelines of the European Community, local laws and policies, and were approved by the Latvian Animal Protection Ethical Committee, the Food and Veterinary Service, Riga, Latvia.
In vivo studies were performed utilizing the mouse sarcoma CCRF-S180 II (CCL-8) and Lewis lung carcinoma (LLC) cell line. All cell lines were purchased from ATCC. The cells were grown in Dulbecco's modified Eagle's medium (Sigma) supplemented with 10% fetal calf serum (Sigma).
ICR mice were subcutaneously inoculated in the back with 5×10^6 CCL-8 cells and BALB/c mice were inoculated with 1×10^6 LLC (Lewis Lung Carcinoma) cells, which were suspended in 0.1 mL of PBS on day zero of the study. The compounds dissolved in DMSO and then in 0.1 mL water (DMSO final concentration 1%) were injected s.c. Mice in the untreated group were similarly given doses of 0.1 mL of water with DMSO. Tumor volume (tumor volume V=[…], a is maximal and b the minimal tumor diameter) was recorded twice per week. The mice were examined every other day for diseases including appearance, weight and behavior. The mice were sacrificed at day 16 of the experiment by decapitation after ketamine/xylazine anesthesia.

malignant tumor cells = experiment: In vitro cytotoxicity on monolayer tumor cell lines (panel, summary in words); assay type: cell-based; conditions: summary of Table 1
Method: Anticancer activity of selenopheno[h]chromenes was tested in vitro using cytotoxicity assay. Thus, monolayer tumor cell lines MDA-MB-435s (human melanoma), MCF-7 (human breast adenocarcinoma, estrogen-positive), MES-SA (human uterus sarcoma), HT-1080 (human fibrosarcoma), A549 (human lung carcinoma), SH-SY5Y (human neuroblastoma), CCL-8 (mouse sarcoma), MG-22A (mouse hepatoma), and HepG2 (human hepatocellular carcinoma) were cultured in standard medium DMEM (Dulbecco's modified Eagle's medium) (“Sigma”) supplemented with 10% fetal bovine serum (“Sigma”). About 2-9·10^4 cells/mL (depending on line nature) were placed in 96-well plates immediately after compounds were added to the wells. Untreated cells were used as a control. The plates were incubated for 72 h, 37° C., 5% CO2. The number of surviving cells was determined using 3-(4,5-dimethylthiazol-2-yl)-2,5-diphenyltetrazolinium bromide (MTT). MTT-test: after incubating culture medium was removed and 200 μL fresh medium with 10 mM HEPES was added in each well of the plate, than 20 μL MTT (2 mg/mL in HBSS) was added. After incubation (3 hr, 37° C., 5% CO2), the medium with MTT was removed and 200 μL DMSO were added at once to each sample. The samples were tested at 540 nm on Anthos HT II photometer.

## COC(=O)c1cc2ccc3c(Br)c(CN4CCOCC4)[se]c3c2oc1=O [Compound I-9, Methyl 7-bromo-8-(morpholinomethyl)-2-oxo-2H-selenopheno[3,2-h]chromene-3-carboxylate]
[1]
  IC50: 86 ± 6 µM
CCL-8 (mouse sarcoma)
  IC50: 84 ± 6 µM
[2]
  IC50: 86 ± 6 µM
[3]
  IC50: 90 ± 6 µM
[4]
  IC50: 81 ± 6 µM
[5]
  IC50: 67 ± 8 µM
[6]
  IC50: 54 ± 7 µM
MG-22A (mouse hepatoma)
  IC50: 48 ± 3 µM
[7]
  IC50: 46 ± 9 µM
[8]; mouse, po, acute oral LD50 calculated from 3T3 NRU IC50 by regression formula, read-out: Basal cytotoxicity Estimated* LD50
  LD50 at 24 h: 2400 µmol/kg and 1250 mg/kg
[8]; normal mouse embryo fibroblasts, read-out: Cytotoxicity IC50, 3T3
  IC50 at 24 h: 56 ± 3 µM
[9]
  Toxicity against normal NIH 3T3 cells: the most toxic among studied chromenes
[10]
  Anticancer activity in vivo (inhibition, %), CCL-8 tumor volume: 38** %
Malignant tumor cells
  Cytotoxicity on cancer cell lines: medium cytotoxicity
